Data on 27 compounds can be found in patent publication US20230096028A1, “BICYCLIC HETEROCYCLYL COMPOUNDS AND USES THEREOF” (Revolution Medicines, Inc., priority 2019, published 2023).

For experiment [1], the target named is T1, SOS1 catalytic domain (residues 564-1049) (Homo sapiens, UniProt Q07889).
T1 sequence (Q07889 564-1049): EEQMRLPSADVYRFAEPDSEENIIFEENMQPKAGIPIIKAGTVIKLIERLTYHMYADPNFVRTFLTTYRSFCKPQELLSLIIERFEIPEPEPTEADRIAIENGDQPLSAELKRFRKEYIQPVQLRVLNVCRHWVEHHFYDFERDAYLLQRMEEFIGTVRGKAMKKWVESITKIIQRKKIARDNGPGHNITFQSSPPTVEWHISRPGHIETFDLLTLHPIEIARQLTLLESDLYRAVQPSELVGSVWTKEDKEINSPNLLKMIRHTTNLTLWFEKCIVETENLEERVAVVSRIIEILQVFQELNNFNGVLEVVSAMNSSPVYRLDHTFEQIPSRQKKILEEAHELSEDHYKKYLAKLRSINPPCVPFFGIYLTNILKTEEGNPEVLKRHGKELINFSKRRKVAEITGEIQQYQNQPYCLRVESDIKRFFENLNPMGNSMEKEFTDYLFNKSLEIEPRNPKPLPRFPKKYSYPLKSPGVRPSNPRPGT
Put plainly: Mode of Action Assay: inhibition of SOS1 nucleotide exchange activity (SOS1 TR-FRET IC50 Assay).

The subject of experiment [2] is PC-9 cells (EGFR Ex19Del). Put plainly: Potency Assay: pERK (SOS1 pERK IC50 Assay, AlphaLISA SureFire Ultra p-ERK1/2). In kind it is cell-based. Conditions: Homo sapiens, read-out: SOS1 pERK IC50. Here is the method:
The purpose of this assay is to measure the ability of test compounds to inhibit SOS1 function in cells. SOS1 activates RAS proteins by catalyzing the conversion of RAS GDP to RAS GTP in response to receptor tyrosine kinase activation. […] The procedure described below measures the level of cellular pERK in response to test compounds in PC-9 cells (EGFR Ex19Del).
PC-9 cells were grown and maintained using media and procedures recommended by the ATCC. On the day prior to compound addition, cells were plated in 384-well cell culture plates (40 μL/well) and grown overnight in a 37° C., 5% CO2 incubator. Test compounds were prepared in 10, 3-fold dilutions in DMSO, with a top concentration of 10 mM. On the day of the assay, 40 nL of test compound was added to each well of cell culture plate using an Echo550 liquid handler (LabCyte). Concentrations of test compound were tested in duplicate with highest test concentration being 10 μM. After compound addition, cells were incubated for 1 hour at 37° C., 5% CO2. Following incubation, culture medium was removed and cells were washed once with phosphate buffered saline.
Cellular pERK level was determined using the AlphaLISA SureFire Ultra p-ERK1/2 Assay Kit (PerkinElmer). Cells were lysed in 25 μL lysis buffer, with shaking at 600 RPM at room temperature for 15 minutes. Lysate (10 μL) was transferred to a 384-well Opti-plate (PerkinElmer) and 5 μL acceptor mix was added. The plate was centrifuged at 1000 RPM for 1 minute, and incubated in the dark for 2 hours. Following this incubation, 5 μL of donor mix was added, the plate was sealed and centrifuged at 1000 RPM for 1 minute, and the mixture was incubated for 2 hours at room temperature. Signal was read on an Envision plate reader (PerkinElmer) using standard AlphaLISA settings. Analysis of raw data was carried out in Excel (Microsoft) and Prism (GraphPad). Signal was plotted vs. the decadal logarithm of compound concentration, and IC50 was determined by fitting a 4-parameter sigmoidal concentration response model.

Where [3] appears, read: PC-9 cells (EGFR Ex19Del), 1 hour incubation, AlphaLISA p-ERK1/2.

Molecules are shown by their SMILES. Read-outs that look alike come from different tables or passages of the source.

On to `C[C@@H](Nc1nc(Cl)nc2c1CN(C(=O)C1CNC1)C2)c1cc(N)cc(C(F)(F)F)c1` [Example 268], for which the IC50 in experiment [1] was below 1000 nM; in experiment [2] (setting [3]), above 1000 nM.
Turning to `C[C@@H](Nc1nc(Cl)nc2c1CN(C(=O)[C@H]1[C@@H]3CNC[C@@H]31)C2)c1cc(N)cc(C(F)(F)F)c1` [Example 269], the IC50 in experiment [1] is below 1000 nM; in experiment [2] (setting [3]), above 1000 nM.
On the same counts, the results for `C[C@@H](Nc1nc(Cl)nc2c1CN(C(=O)C13COCC(CO1)C3)C2)c1cc(N)cc(C(F)(F)F)c1` (stereo partly drawn) [Example 273] are below 1000 nM and below 1000 nM.
For `C[C@@H](Nc1nc(Cl)nc2c1CN(C(=O)C1OCCN(C)C1=O)C2)c1cccc(C(F)F)c1F` (stereo partly drawn) [Example 301], the IC50 in experiment [1] and in experiment [2] (setting [3]) was below 1000 nM throughout.
For the compound `C[C@@H](Nc1nc(Cl)nc2c1CN(C(=O)[C@@H]1COC[C@@H]1N)C2)c1cccc(C(F)F)c1F` [Example 308], the IC50 is below 1000 nM in experiment [1] and above 1000 nM in experiment [2] (setting [3]).
As for `C[C@@H](Nc1nc(Cl)nc2c1CN(C(=O)N1CCOc3cccnc31)C2)c1cccc(C(F)(F)F)c1` [Example 368], the IC50 in experiment [1] and in experiment [2] (setting [3]) was below 1000 nM each time.
As to `C[C@@H](Nc1nc(Cl)nc2c1CN(C(=O)N1CCc3ncccc31)C2)c1cccc(C(F)(F)F)c1` [Example 371], the half-inhibitory concentration (IC50) in experiment [1] and in experiment [2] (setting [3]) was below 1000 nM throughout.
For `C[C@@H](Nc1nc(Cl)nc2c1CN(C(=O)N1CCNc3ccccc31)C2)c1cccc(C(F)(F)F)c1` [Example 372], the IC50 in experiment [1] and in experiment [2] (setting [3]) was below 1000 nM each time.
On to `C[C@@H](Nc1nc(Cl)nc2c1CN(C(=O)N1CCNC3CC31)C2)c1cccc(C(F)(F)F)c1` (stereo partly drawn) [Example 379], for which the IC50 in experiment [1] and in experiment [2] (setting [3]) was below 1000 nM in each case.
For `C[C@@H](Nc1nc(Cl)nc2c1C[C@H](N1CCOCC1)CC2)c1cccc(C(F)F)c1F` [Example 441], the IC50 in experiment [1] was below 1000 nM; in experiment [2] (setting [3]), above 1000 nM.
`COC1CN([C@@H]2CCc3ncnc(N[C@H](C)c4cccc(C(F)F)c4F)c3C2)C1` [Example 443]: the IC50 in experiment [1] and in experiment [2] (setting [3]) was above 1000 nM in each case.
Regarding `CC(Nc1nc(Cl)nc2c1CN(C(=O)N1CCOCC1)C2)c1cccc(S(F)(F)(F)(F)F)c1` (stereo not drawn) [Example 462, [2-chloro-4-[1-[3-(pentafluoro-sulfanyl)phenyl]ethylamino]-5,7-dihydropyrrolo[3,4-d]pyrimidin-6-yl]-morpholino-methanone], the IC50 in experiment [1] and in experiment [2] (setting [3]) was above 1000 nM in each case.
As to `CC(Nc1nc(Cl)nc2c1CN(C(=O)N1CCOCC1)C2)c1cc(C(F)(F)F)ccn1` (stereo not drawn) [Example 472, 2-chloro-6-(morpholine-4-carbonyl)-N-{1-[4-(trifluoromethyl)pyridin-2-yl]ethyl}-5H,6H,7H-pyrrolo[3,4-d]pyrimidin-4-amine], the IC50 in experiment [1] and in experiment [2] (setting [3]) was above 1000 nM each time.
Take `C[C@@H](Nc1nc(Cl)nc2c1CN(C(=O)N1CCOCC1)C2)c1cccc(C(F)(F)F)n1` [Example 473, 2-chloro-6-(morpholine-4-carbonyl)-N-[(1R)-1-[6-(trifluoromethyl)pyridin-2-yl]ethyl]-5H,6H,7H-pyrrolo[3,4-d]pyrimidin-4-amine]: the IC50 in experiment [1] and in experiment [2] (setting [3]) was above 1000 nM throughout.
Turning to `C[C@@H](Nc1nc(Cl)nc2c1CN(C(=O)N1CCOCC1)C2)c1cnc(C(F)(F)F)s1` [Example 474, 2-chloro-6-(morpholine-4-carbonyl)-N-[(1R)-1-[2-(trifluoromethyl)-1,3-thiazol-5-yl]ethyl]-5H,6H,7H-pyrrolo[3,4-d]pyrimidin-4-amine], the IC50 in experiment [1] and in experiment [2] (setting [3]) was above 1000 nM throughout.
Take `COC(F)(F)c1cccc([C@@H](C)Nc2nc(Cl)nc3c2CN(C(=O)N2CCOCC2)C3)c1` [Example 475, 2-chloro-N-[(1R)-1-{3-[difluoro(methoxy)methyl]phenyl}ethyl]-6-(morpholine-4-carbonyl)-5H,6H,7H-pyrrolo[3,4-d]pyrimidin-4-amine]: the IC50 in experiment [1] and in experiment [2] (setting [3]) was above 1000 nM each time.
With `C[C@@H](Nc1nc(Cl)nc2c1CN(C(=O)N1CCOCC1)C2)c1cncc(C(F)(F)F)c1` [Example 480, 2-chloro-6-(morpholine-4-carbonyl)-N-[(1R)-1-[5-(trifluoromethyl)pyridin-3-yl]ethyl]-5H,6H,7H-pyrrolo[3,4-d]pyrimidin-4-amine], the IC50 in experiment [1] and in experiment [2] (setting [3]) was above 1000 nM throughout.
With `C[C@@H](Nc1nc(Cl)nc2c1CN(C(=O)N1CCOCC1)C2)c1csc(C(F)F)c1F` [Example 481, 2-chloro-N-[(1R)-1-[5-(difluoromethyl)-4-fluorothiophen-3-yl]ethyl]-6-(morpholine-4-carbonyl)-5H,6H,7H-pyrrolo[3,4-d]pyrimidin-4-amine], the IC50 in experiment [1] was above 1000 nM; in experiment [2] (PC-9, 1 h), above 1000 nM.
As to `COc1c(C(F)F)cccc1C(C)Nc1nc(Cl)nc2c1CN(C(=O)N1CCOCC1)C2` (stereo not drawn) [Example 494], the IC50 in experiment [1] and in experiment [2] (setting [3]) was above 1000 nM throughout.
Take `C[C@@H](Nc1nc(Cl)nc2c1CN(C(=O)N1CCOCC1)C2)c1ccc2cc[nH]c2c1` [Example 495]: the concentration for half-maximal inhibition (IC50) in experiment [1] and in experiment [2] (setting [3]) was above 1000 nM each time.
Take `CC(Nc1nc(Cl)nc2c1CN(C(=O)N1CCOCC1)C2)c1cccc(S(C)(=O)=O)c1` (stereo not drawn) [Example 497]: the IC50 in experiment [1] and in experiment [2] (setting [3]) was above 1000 nM in each case.
Take `CC(Nc1nc(Cl)nc2c1CN(C(=O)N1CCOCC1)C2)c1cccc(C(F)(F)F)c1Cl` (stereo not drawn) [Example 498]: the IC50 in experiment [1] is above 1000 nM; in experiment [2] (setting [3]) it was below 1000 nM.
Taken in the same sequence, the figures for `Cc1c(C(C)Nc2nc(Cl)nc3c2CN(C(=O)N2CCOCC2)C3)cccc1C(F)(F)F` (stereo not drawn) [Example 499] were above 1000 nM and below 1000 nM.
As to `CC(CO)c1cccc(C(C)Nc2nc(Cl)nc3c2CN(C(=O)N2CCOCC2)C3)c1` (stereo not drawn) [Example 500, 2-[3-(1-{[2-Chloro-6-(morpholine-4-carbonyl)-5H,6H,7H-pyrrolo[3,4-d]pyrimidin-4-yl]amino}ethyl)phenyl]propan-1-ol], the IC50 in experiment [1] is below 1000 nM; in experiment [2] (setting [3]), above 1000 nM.
As to `CC(Nc1nc(Cl)nc2c1CN(C(=O)N1CCOCC1)C2)c1cccc(CCO)c1` (stereo not drawn) [Example 501, 2-[3-(1-{[2-chloro-6-(morpholine-4-carbonyl)-5H,6H,7H-pyrrolo[3,4-d]pyrimidin-4-yl]amino}ethyl)phenyl]ethan-1-ol], the IC50 in experiment [1] was below 1000 nM; in experiment [2] (setting [3]), above 1000 nM.
Regarding `C[C@@H](Nc1ncnc2c1CC(N1CCOCC1)C(=O)N2C)c1cc(N)cc(C(F)(F)F)c1` (stereo partly drawn) [Example 502, 4-{[(1R)-1-[3-amino-5-(trifluoromethyl)phenyl]ethyl]amino}-8-methyl-6-(morpholin-4-yl)-5H,6H,7H,8H-pyrido[2,3-d]pyrimidin-7-one], the results for the IC50 in experiment [1] and in experiment [2] (setting [3]) were below 1000 nM and above 1000 nM, respectively.
As to `CNCc1nc2c(c(N[C@H](C)c3cc(N)cc(C(F)(F)F)c3)n1)CN(C(=O)N1CCOCC1)C2` [Example 503, N-[(1R)-1-[3-amino-5-(trifluoro-methyl)phenyl]ethyl]-2-[(methylamino)methyl]-6-(morpholine-4-carbonyl)-5H,6H,7H-pyrrolo[3,4-d]-pyrimidin-4-amine], the figures for the IC50 in experiment [1] and in experiment [2] (setting [3]) were below 1000 nM and above 1000 nM, respectively.
